The source made the active and inactive calls. The calls are words filed in the database; no cut-off is given here.
Experiments:
[1] = molecular target: Sigma non-opioid intracellular receptor 1 (Cavia porcellus, UniProt Q60492); assay: Displacement of [3H]-pentazocine from sigma1 receptor in guinea pig brain membranes after 120 mins by liquid scintillation counting; assay type: cell membranes, Membrane
[2] = molecular target: T1, Sigma intracellular receptor 2 (Rattus norvegicus, UniProt Q5U3Y7); assay: Displacement of [3H]-DTG from sigma2 receptor in rat liver membranes after 120 mins by liquid scintillation counting; assay type: cell membranes, Membrane
T1 sequence (Q5U3Y7 whole entry): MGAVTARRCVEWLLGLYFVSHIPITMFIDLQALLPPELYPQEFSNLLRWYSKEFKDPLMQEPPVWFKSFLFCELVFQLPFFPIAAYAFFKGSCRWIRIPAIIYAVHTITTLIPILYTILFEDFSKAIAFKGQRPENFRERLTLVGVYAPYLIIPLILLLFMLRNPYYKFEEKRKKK

[3] = Displacement of [3H]-(+)-MK 801 from PCP binding site of NMDA receptor in pig brain cortex membranes after 120 mins by liquid scintillation spectrometry; assay type: cell membranes, Sus scrofa
[4] = molecular target: C-8 sterol isomerase ERG2 (Saccharomyces cerevisiae S288c) (UniProt P32352); assay: Inhibition of yeast sterol-delta8/7-isomerase at 50 uM
[5] = molecular target: C-8 sterol isomerase ERG2 (Saccharomyces cerevisiae S288c) (UniProt P32352); assay: Inhibition of yeast sterol-delta8/7-isomerase assessed as accumulation of cholesta-8-en-3beta-ol at 1 uM
[6] = molecular target: C-8 sterol isomerase ERG2 (Saccharomyces cerevisiae S288c) (UniProt P32352); assay: Inhibition of yeast sterol-delta8/7-isomerase assessed as accumulation of cholesta-8-en-3beta-ol at 50 uM
[7] = molecular target: C-8 sterol isomerase ERG2 (Saccharomyces cerevisiae S288c) (UniProt P32352); assay: Inhibition of yeast sterol-delta8/7-isomerase assessed as accumulation of cholesta-8,14-dien-3beta-ol at 1 uM
[8] = molecular target: C-8 sterol isomerase ERG2 (Saccharomyces cerevisiae S288c) (UniProt P32352); assay: Inhibition of yeast sterol-delta8/7-isomerase assessed as accumulation of cholesta-8,14-dien-3beta-ol at 50 uM
[9] = molecular target: C-8 sterol isomerase ERG2 (Saccharomyces cerevisiae S288c) (UniProt P32352); assay: Inhibition of yeast sterol-delta8/7-isomerase assessed as accumulation of cholesta-7-en-3beta-ol at 1 uM
[10] = molecular target: C-8 sterol isomerase ERG2 (Saccharomyces cerevisiae S288c) (UniProt P32352); assay: Inhibition of yeast sterol-delta8/7-isomerase assessed as accumulation of cholesta-7-en-3beta-ol at 50 uM
[11] = molecular target: C-8 sterol isomerase ERG2 (Saccharomyces cerevisiae S288c) (UniProt P32352); assay: Inhibition of yeast sterol-delta8/7-isomerase assessed as accumulation of cholesta-5,7-dien-3beta-ol at 1 uM
[12] = molecular target: C-8 sterol isomerase ERG2 (Saccharomyces cerevisiae S288c) (UniProt P32352); assay: Inhibition of yeast sterol-delta8/7-isomerase assessed as accumulation of cholesta-5,7-dien-3beta-ol at 50 uM

Sequence of C-8 sterol isomerase ERG2 (Saccharomyces cerevisiae S288c) (P32352 whole entry, looked up): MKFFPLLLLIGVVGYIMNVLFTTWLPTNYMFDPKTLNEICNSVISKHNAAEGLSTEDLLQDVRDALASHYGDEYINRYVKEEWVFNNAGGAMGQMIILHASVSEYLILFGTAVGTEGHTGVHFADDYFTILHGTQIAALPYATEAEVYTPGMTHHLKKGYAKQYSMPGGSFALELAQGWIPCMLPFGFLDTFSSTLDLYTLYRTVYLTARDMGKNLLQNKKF
Sequence of Sigma non-opioid intracellular receptor 1 (Q60492 whole entry): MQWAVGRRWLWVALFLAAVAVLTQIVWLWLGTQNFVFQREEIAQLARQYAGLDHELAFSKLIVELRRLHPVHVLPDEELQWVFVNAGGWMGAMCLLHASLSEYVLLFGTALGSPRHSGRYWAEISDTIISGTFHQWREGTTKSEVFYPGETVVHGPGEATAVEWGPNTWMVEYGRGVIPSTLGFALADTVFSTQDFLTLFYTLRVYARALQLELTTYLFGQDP

SMILES | Ki [1] [nM] | Ki [2] [nM] | IC50 [3] [nM] | inhibition [4] | inhibition [5] | inhibition [6] | inhibition [7] | inhibition [8] | inhibition [9] | inhibition [10] | inhibition [11] | inhibition [12]
CCCCN1CCCN(Cc2ccccc2)[C@H](Cc2ccccc2)C1 | 3.9 | 169 | > 1000 | Active | Active | inactive | Active | Active | Active | Active | Active | Active
CCCCN1CCCN(CCCC)[C@@H](Cc2ccccc2)C1 | 18 | 278 | > 1000 | – | – | – | – | – | – | – | – | –
CCCCN1CCCN(CCCCc2ccccc2)[C@H](Cc2ccccc2)C1 | 13 | 942 | > 1000 | – | – | – | – | – | – | – | – | –
C[C@H]1CN(CC2CCCCC2)CCCN1Cc1ccccc1 | 0.22 | 7.4 | > 1000 | – | inactive | inactive | inactive | inactive | Active | Active | Active | Active
CCCCN1CCCN(C)[C@H](Cc2ccccc2)C1 | 113 | 1000 | > 1000 | – | – | – | – | – | – | – | – | –
c1ccc(CCCCN2CCCN(Cc3ccccc3)[C@@H](Cc3ccccc3)C2)cc1 | 38 | 372 | > 1000 | – | inactive | – | Active | – | Active | – | Active | –
CCCCN1CCCN(CCCC)[C@H](Cc2ccccc2)C1 | 21 | > 1000 | > 1000 | – | – | – | – | – | – | – | – | –
COc1ccc(CN2CCCN(Cc3ccccc3)[C@H](C)C2)cc1 | 0.51 | 431 | > 1000 | – | – | – | – | – | – | – | – | –
CCCCN1CCCN(C)[C@@H](Cc2ccccc2)C1 | 120 | > 1000 | > 1000 | – | – | – | – | – | – | – | – | –
C[C@@H]1CN(CCCCc2ccccc2)CCCN1Cc1ccccc1 | 0.83 | 71 | > 1000 | – | Active | inactive | inactive | inactive | Active | Active | Active | Active
c1ccc(CCN2CCCN(Cc3ccccc3)[C@H](Cc3ccccc3)C2)cc1 | 52 | > 1000 | > 1000 | – | Active | – | Active | – | Active | – | Active | –
c1ccc(CCCCN2CCCN(Cc3ccccc3)[C@H](Cc3ccccc3)C2)cc1 | 28 | 423 | > 1000 | – | inactive | Active | inactive | Active | Active | Active | Active | Active
CN1CCCN(Cc2ccccc2)[C@H](Cc2ccccc2)C1 | 280 | > 1000 | > 1000 | – | inactive | Active | Active | Active | Active | Active | Active | Active
CCCCN1CCN(CCc2ccc(Cl)c(Cl)c2)CC1 | 0.55 | – | – | – | – | – | – | – | – | – | – | –
COc1ccc(CN2CCCN(Cc3ccccc3)[C@@H](C(C)C)C2)cc1 | 20 | > 1000 | > 1000 | – | Active | Active | Active | inactive | Active | Active | Active | Active
OC(CN1CCCN(Cc2ccccc2)[C@@H](Cc2ccccc2)C1)c1ccccc1 (some centres undefined) | 234 | 903 | > 1000 | – | – | – | – | – | – | – | – | –

SMILES | Ki [1] [nM] | Ki [2] [nM] | IC50 [3] [nM] | inhibition [4] | inhibition [5] | inhibition [6] | inhibition [7] | inhibition [8] | inhibition [9] | inhibition [10] | inhibition [11] | inhibition [12]
CCCCN1CCCN(CCCCc2ccccc2)[C@@H](Cc2ccccc2)C1 | 6.2 | > 1000 | > 1000 | – | – | – | – | – | – | – | – | –
OCC(c1ccccc1)N1CCCN(Cc2ccccc2)[C@@H](Cc2ccccc2)C1 (some centres undefined) | 228 | > 1000 | > 1000 | – | – | – | – | – | – | – | – | –
c1ccc(C[C@@H]2CNCCCN2Cc2ccccc2)cc1 | > 1000 | > 1000 | > 1000 | – | Active | inactive | Active | Active | Active | Active | Active | Active
CN1CCCN(Cc2ccccc2)[C@@H](Cc2ccccc2)C1 | 448 | > 1000 | > 1000 | – | inactive | inactive | Active | inactive | Active | Active | Active | Active
COc1ccc(CN2CCCN(Cc3ccccc3)[C@@H](Cc3ccccc3)C2)cc1 | 29 | > 1000 | > 1000 | – | Active | inactive | Active | Active | inactive | Active | Active | Active
c1ccc(CCCN2CCCN(Cc3ccccc3)[C@H](Cc3ccccc3)C2)cc1 | 25 | 300 | > 1000 | – | Active | Active | Active | Active | Active | Active | inactive | Active
C[C@H]1CN(CCCCc2ccccc2)CCCN1Cc1ccccc1 | 0.77 | 8.6 | > 1000 | – | Active | – | inactive | – | Active | – | Active | –
CCCCN1CCCN(Cc2ccccc2)[C@H](C)C1 | 0.37 | 372 | > 1000 | – | Active | inactive | Active | inactive | Active | Active | inactive | Active
C[C@@H]1CN(CC2CCCCC2)CCCN1Cc1ccccc1 | 0.38 | 7 | > 1000 | – | inactive | inactive | inactive | inactive | Active | Active | Active | Active
c1ccc(C[C@H]2CNCCCN2Cc2ccccc2)cc1 | > 1000 | > 10000 | > 1000 | – | Active | inactive | Active | Active | Active | Active | Active | inactive
COc1ccc(CN2CCCN(CC3CCCCC3)C[C@@H]2C)cc1 | 1.1 | 19 | > 1000 | – | – | – | – | – | – | – | – | –
c1ccc(CCCN2CCCN(Cc3ccccc3)[C@@H](Cc3ccccc3)C2)cc1 | 73 | 193 | > 1000 | – | Active | – | Active | – | Active | – | Active | –
CC(C)[C@H]1CN(CC2CCCCC2)CCCN1Cc1ccccc1 | 6 | > 1000 | > 1000 | – | inactive | Active | Active | inactive | Active | Active | Active | Active
C[C@H]1CN(CC2CCCCC2)CCCN1Cc1ccc(Cl)cc1 | 4.9 | 51 | > 1000 | – | – | – | – | – | – | – | – | –
CCCCN1CCCN(Cc2ccccc2)[C@@H](C)C1 | 0.61 | 276 | > 1000 | – | Active | inactive | Active | inactive | Active | Active | Active | Active
CC(C)=CCN1CCCN(Cc2ccccc2)[C@H](Cc2ccccc2)C1 | 5 | 325 | > 1000 | – | inactive | inactive | inactive | Active | Active | Active | Active | Active
